The results in this text go back to patent publication US4855287A, “Aminoglycoside compounds, processes for production thereof, and pharamaceutical composition containing the same” (Kowa Company, Ltd., priority 1985, dated 1989).

The structures appear in SMILES notation. Where two headings read alike, the source gives them in different places.

The test system of the test is Bacillus subtilis ATCC 6633. In words: Test for antibacterial activity (paper disk, diameter of inhibitory zone, before and after incubation in rat liver/kidney homogenate). In kind it is cell-based. To be noted: 200 mcq/ml, 8 mm paper disk. The procedure: Each of the test compounds shown in the following table was dissolved in a concentration of 200 mcq/ml in a homogenate of a 10% physiological saline solution of an organ of a rat, and incubated at 37° C. for 2 hours. An enzymatic reaction was stopped by adding an equal amount of ethanol. The antibacterial activity of the test compound before incubation was compared with that after incubation. The incubation was carried out in an equal amount mixture of a liver homogenate and a kidney homogenate. The antibacterial activity was measured by a paper disk having a diameter of 8 mm using Bacillus subtilis ATCC 6633 as a test organism, and shown by the diameter of the resulting inhibitory zone.

Where [1] appears, read: ATCC6633, after incubation at 37° C. for 2 hours in rat liver homogenate and kidney homogenate, read-out: Diameter of the inhibitory zone, after incubation.
Setting [2] is: ATCC6633, before incubation, read-out: Diameter of the inhibitory zone, before incubation.

As for `CC(N)C1CCC(N)C(OC2C(N)CC(O)C(N(C)C(=O)CNC(=O)[C@@H](N)CC(=O)OC(C)(C)C)C2O)O1` (stereo partly drawn) [Example 9, 2"-N-(β-O-tert.-butyl-L-aspartyl)-5-de-O-methyl-KA-6606I], the zone of inhibition at 200 µg/mL under setting [1] worked out at 23.2 mm and the zone of inhibition at 200 µg/mL under setting [2] stood at 12.7 mm.

Turning to `CCCCCCCCCCCCCCCCCC(=O)NCC(=O)NCCCC[C@H](N)C(=O)NCC(=O)N(C)C1C(O)CC(N)C(OC2OC(C(C)N)CCC2N)C1O` (stereo partly drawn) [Example 6, 2"-N-[N^ε -(N-stearoylglysyl)-L-lysyl]-5-de-O-methyl-KA-6606I], the zone of inhibition at 200 µg/mL worked out at 16.6 mm under setting [1] and 10.5 mm under setting [2].

With `COC(=O)C[C@H](N)C(=O)NCC(=O)N(C)C1C(O)CC(N)C(OC2OC(C(C)N)CCC2N)C1O` (stereo partly drawn) [Example 8, 2"-N-(β-O-methyl-L-aspartyl)-5-de-O-methyl-KA-666I], the zone of inhibition at 200 µg/mL is, setting by setting: under setting [1], 23.9 mm; under setting [2], 15.9 mm.

Take `CCCCCCCCCCCCCCCCCC(=O)NCCCC[C@H](N)C(=O)NCC(=O)N(C)C1C(O)CC(N)C(OC2OC(C(C)N)CCC2N)C1O` (stereo partly drawn) [Example 3, 2"-N-(N^ε -stearoyl-L-lysyl)-5-de-O-methyl-KA-6606I]: the zone of inhibition at 200 µg/mL under setting [1] came to 15.5 mm and the zone of inhibition at 200 µg/mL under setting [2] stood at 14 mm.

As for `CCCCCCNC(=O)CC[C@H](N)C(=O)NCC(=O)N(C)C1C(O)CC(N)C(OC2OC(C(C)N)CCC2N)C1O` (stereo partly drawn) [Example 30, 2"-N-(N^γ-hexyl-L-glutaminyl)-5-de-O-methyl-KA-6606I], the zone of inhibition at 200 µg/mL runs as follows: under setting [1], 19.8 mm; under setting [2], 15 mm.

With `CC(N)C1CCC(N)C(OC2C(N)CC(O)C(N(C)C(=O)CNC(=O)[C@@H](N)CSC(c3ccccc3)c3ccccc3)C2O)O1` (stereo partly drawn) [Example 53, 2"-N-(S-diphenylmethyl-L-cysteinyl)-5-de-O-methyl-KA-6606I], the zone of inhibition at 200 µg/mL was found to be 24.3 mm under setting [1] and 16.5 mm under setting [2].

For the compound `CC(N)C1CCC(N)C(OC2C(N)CC(O)C(N(C)C(=O)CNC(=O)[C@@H](N)CCC(=O)OCCCCOC(=O)CC[C@@H](C)[C@H]3CC[C@H]4[C@@H]5CC[C@@H]6C[C@H](O)CC[C@]6(C)[C@H]5C[C@H](O)[C@]34C)C2O)O1` (stereo partly drawn) [Example 26, 2"-N-[γ-O-(4-deoxycholyloxybutyl)-L-glutamyl]-5-de-O-methyl-KA-6606I], the zone of inhibition at 200 µg/mL by setting is: under setting [1], 21.8 mm; under setting [2], 14.8 mm.

Regarding `CC(=O)NCCCC[C@H](N)C(=O)NCC(=O)N(C)C1C(O)CC(N)C(OC2OC(C(C)N)CCC2N)C1O` (stereo partly drawn) [Example 1, 2"-N-(N^ε -acetyl-L-lysyl)-5-de-O-methyl-KA-6606I], the zone of inhibition at 200 µg/mL runs as follows: under setting [1], 25.1 mm; under setting [2], 14.1 mm.

`CC(N)C1CCC(N)C(OC2C(N)CC(O)C(N(C)C(=O)CNC(=O)[C@@H](N)CC(=O)Oc3cccc4ccccc34)C2O)O1` (stereo partly drawn) [Example 12, 2"-N-[β-O-(α-naphthyl)-L-aspartyl]-5-de-O-methyl-KA-6606I]: the zone of inhibition at 200 µg/mL came out at 18.3 mm under setting [1] and 12.6 mm under setting [2].

With `CCCCCCCCCC(=O)OCC(COC(=O)CCCCCCCCC)OC(=O)CCC(N)C(=O)NCC(=O)N(C)C1C(O)CC(N)C(OC2OC(C(C)N)CCC2N)C1O` [Example 16, 2"-N-{γ-O-[2-(1,3-bis-decanoyloxy)propyl]-L-glutamyl}-5-de-O-methyl-KA-6606I], the zone of inhibition at 200 µg/mL reads like this: under setting [1], 17.5 mm; under setting [2], 12.5 mm.

In the case of `CC(N)C1CCC(N)C(OC2C(N)CC(O)C(N(C)C(=O)CNC(=O)[C@@H](N)CC(=O)Oc3ccccc3)C2O)O1` (stereo partly drawn) [Example 11, 2"-N-(β-O-phenyl-L-aspartyl)-5-de-O-methyl-KA-6606I], the zone of inhibition at 200 µg/mL under setting [1] worked out at 19 mm and the zone of inhibition at 200 µg/mL under setting [2] was found to be 14 mm.

As for `CCCCCC(=O)NCCCNC(=O)CC[C@H](N)C(=O)NCC(=O)N(C)C1C(O)CC(N)C(OC2OC(C(C)N)CCC2N)C1O` (stereo partly drawn) [Example 36, 2"-N-[N^γ -(3-hexanoylaminopropyl)-L-glutaminyl]-5-de-O-methyl-KA-6606I], the zone of inhibition at 200 µg/mL by setting is: under setting [1], 22.8 mm; under setting [2], 10.5 mm.

Regarding `CCCCCCCCCC(=O)OCC(CCOC(=O)CC[C@H](N)C(=O)NCC(=O)N(C)C1C(O)CC(N)C(OC2OC(C(C)N)CCC2N)C1O)OC(=O)CCCCCCCCC` (stereo partly drawn) [Example 22, 2"-N-{γ-[3,4-bis-(decanoyloxy)butyl]-L-glutamyl}-5-de-O-methyl-KA-6606I], the zone of inhibition at 200 µg/mL was 18.3 mm under setting [1] and 10.7 mm under setting [2].

As for `CCCCCCCCCCCCCCCCCC(=O)NCCCNC(=O)CC[C@H](N)C(=O)NCC(=O)N(C)C1C(O)CC(N)C(OC2OC(C(C)N)CCC2N)C1O` (stereo partly drawn) [Example 40, 2"-N-[N^γ -(3-stearoylaminopropyl)-L-glutaminyl]-5-de-O-methyl-KA-6606I], the zone of inhibition at 200 µg/mL by setting is: under setting [1], 16.6 mm; under setting [2], 14.1 mm.

With `CCCCCCCCCC(=O)NCCCC[C@H](N)C(=O)NCC(=O)N(C)C1C(O)CC(N)C(OC2OC(C(C)N)CCC2N)C1O` (stereo partly drawn) [Example 2, 2"-N-(N^ε -decanoyl-L-lysyl)-5-de-O-methyl-KA-6606I], the zone of inhibition at 200 µg/mL reads like this: under setting [1], 22 mm; under setting [2], 15.9 mm.

With `CCCCCCCCCC(=O)OCCCOC(=O)CC[C@H](N)C(=O)NCC(=O)N(C)C1CCC(N)C(OC2OC(C(C)N)CCC2N)C1O` (stereo partly drawn) [Example 56, 2"-N-[N^γ -(3-decanoyloxypropyl)-L-glutamyl)-5-demethoxy-KA-6606I], the zone of inhibition at 200 µg/mL was determined as 24.6 mm under setting [1] and 17.5 mm under setting [2].

In the case of `CCCCCCCCCC(=O)OCC(COC(=O)CC[C@H](N)C(=O)NCC(=O)N(C)C1C(O)CC(N)C(OC2OC(C(C)N)CCC2N)C1O)OC(=O)CCCCCCCCC` (stereo partly drawn) [Example 17, 2"-N-[γ-O-(2,3-bis-decanoyloxypropyl)-L-glutamyl]-5-de-O-methyl-KA-66606I], the zone of inhibition at 200 µg/mL runs as follows: under setting [1], 19.7 mm; under setting [2], 10.6 mm.

Turning to `CC(N)C1CCC(N)C(OC2C(N)CC(O)C(N(C)C(=O)CNC(=O)[C@@H](N)CCC(=O)OCCCCOC(=O)c3cccc4ccccc34)C2O)O1` (stereo partly drawn) [Example 21, 2"-N-{γ-O-[4-(α-naphthoyloxy)butyl]-L-glutamyl}-5-de-O-methyl-KA-6606I], the zone of inhibition at 200 µg/mL under setting [1] stood at 22.6 mm and the zone of inhibition at 200 µg/mL under setting [2] is 15.1 mm.

Consider `CCCCCCNC(=O)CNC(=O)CC[C@H](N)C(=O)NCC(=O)N(C)C1C(O)CC(N)C(OC2OC(C(C)N)CCC2N)C1O` (stereo partly drawn) [Example 44, 2"-N-[N^γ -(hexylaminocarbonylmethyl)-L-glutaminyl]-5-de-O-methyl-KA-6606I], for which the zone of inhibition at 200 µg/mL is, setting by setting: under setting [1], 20.2 mm; under setting [2], 8 mm.

Consider `COc1ccc(CSC[C@H](N)C(=O)NCC(=O)N(C)C2C(O)CC(N)C(OC3OC(C(C)N)CCC3N)C2O)cc1` (stereo partly drawn) [Example 51, 2"-N-[S-(p-methoxybenzyl)-L-cysteinyl]-5-de-O-methyl-KA-6606I], for which the zone of inhibition at 200 µg/mL under setting [1] was determined as 25.4 mm and the zone of inhibition at 200 µg/mL under setting [2] was determined as 18.3 mm.

On to `CCCCCCCCCC(=O)NCC(=O)NCCCC[C@H](N)C(=O)NCC(=O)N(C)C1C(O)CC(N)C(OC2OC(C(C)N)CCC2N)C1O` (stereo partly shown) [Example 5], for which the zone of inhibition at 200 µg/mL reads like this: under setting [1], 21 mm; under setting [2], 15.5 mm.

On to `CC(N)C1CCC(N)C(OC2C(N)CC(O)C(N(C)C(=O)CNC(=O)[C@@H](N)CCC(=O)Nc3cccc4ccccc34)C2O)O1` (stereo partly drawn) [Example 33, 2"-N-[N^γ-(1-naphthyl)-L-glutamin-yl]-de-O-methyl-KA-6606I], for which the zone of inhibition at 200 µg/mL is, setting by setting: under setting [1], 23.5 mm; under setting [2], 15.7 mm.

With `CCCCCCCCCCNC(=O)CC[C@H](N)C(=O)NCC(=O)N(C)C1C(O)CC(N)C(OC2OC(C(C)N)CCC2N)C1O` (stereo partly drawn) [Example 32, 2"-N-(N^γ -decyl-L-glutaminyl)-5-de-O-methyl-KA-6606I], the zone of inhibition at 200 µg/mL under setting [1] was determined as 19 mm and the zone of inhibition at 200 µg/mL under setting [2] is 14.1 mm.

For the compound `CCCCCCCCCC(=O)OCCCOC(=O)CC[C@H](N)C(=O)NCC(=O)N(C)C1C(O)CC(N)C(OC2OC(C(C)N)CCC2N)C1O` (stereo partly drawn) [Example 18, 2"-N-[γ-O-(3-decanoyloxypropyl)-L-glutamyl]-5-de-O-methyl-KA-6606I], the zone of inhibition at 200 µg/mL stood at 23.9 mm under setting [1] and 16.8 mm under setting [2].

Take `CCCCCCCCNC(=O)CC[C@H](N)C(=O)NCC(=O)N(C)C1C(O)CC(N)C(OC2OC(C(C)N)CCC2N)C1O` (stereo partly drawn) [Example 31, 2"-N-(N^γ-octyl-L-glutaminyl)-5-de-O-methyl-KA-6606I]: the zone of inhibition at 200 µg/mL under setting [1] is 19 mm and the zone of inhibition at 200 µg/mL under setting [2] amounted to 15.3 mm.

`CCCCCCCCCC(=O)NCCCNC(=O)CC[C@H](N)C(=O)NCC(=O)N(C)C1C(O)CC(N)C(OC2OC(C(C)N)CCC2N)C1O` (stereo partly drawn) [Example 38, 2"-N-[N^γ -(3-decanoylaminopropyl)-L-glutaminyl]-5-de-O-methyl-KA-6606I]: the zone of inhibition at 200 µg/mL stood at 23.9 mm under setting [1] and 17.1 mm under setting [2].
